From paper PMC6812009, “Covalent Aurora A regulation by the metabolic integrator coenzyme A” (Redox Biology, 2019)

Legend:
Experiment in all cases: Kinase profiling screen (radioactive filter-binding assay)
Assay type in all cases: biochemical
CDK2-Cyclin A = CDK2-Cyclin A (Homo sapiens, UniProt P24941); details: 100 μM compound, 20 μM ATP; read-out: Kinase activity, % of activity in the absence of inhibitor
Outline: (§1)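 Single-point in vitro screen: 100 μM final of CoA, dpCoA and ADP, run in duplicate against recombinant kinase with a model substrate and optimal ATP.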

MARK2 = MARK2 (Homo sapiens, UniProt Q7KZI7); details: 100 μM compound, 20 μM ATP; read-out: Kinase activity, % of activity in the absence of inhibitor
Sequence of MARK2 (Q7KZI7 whole entry): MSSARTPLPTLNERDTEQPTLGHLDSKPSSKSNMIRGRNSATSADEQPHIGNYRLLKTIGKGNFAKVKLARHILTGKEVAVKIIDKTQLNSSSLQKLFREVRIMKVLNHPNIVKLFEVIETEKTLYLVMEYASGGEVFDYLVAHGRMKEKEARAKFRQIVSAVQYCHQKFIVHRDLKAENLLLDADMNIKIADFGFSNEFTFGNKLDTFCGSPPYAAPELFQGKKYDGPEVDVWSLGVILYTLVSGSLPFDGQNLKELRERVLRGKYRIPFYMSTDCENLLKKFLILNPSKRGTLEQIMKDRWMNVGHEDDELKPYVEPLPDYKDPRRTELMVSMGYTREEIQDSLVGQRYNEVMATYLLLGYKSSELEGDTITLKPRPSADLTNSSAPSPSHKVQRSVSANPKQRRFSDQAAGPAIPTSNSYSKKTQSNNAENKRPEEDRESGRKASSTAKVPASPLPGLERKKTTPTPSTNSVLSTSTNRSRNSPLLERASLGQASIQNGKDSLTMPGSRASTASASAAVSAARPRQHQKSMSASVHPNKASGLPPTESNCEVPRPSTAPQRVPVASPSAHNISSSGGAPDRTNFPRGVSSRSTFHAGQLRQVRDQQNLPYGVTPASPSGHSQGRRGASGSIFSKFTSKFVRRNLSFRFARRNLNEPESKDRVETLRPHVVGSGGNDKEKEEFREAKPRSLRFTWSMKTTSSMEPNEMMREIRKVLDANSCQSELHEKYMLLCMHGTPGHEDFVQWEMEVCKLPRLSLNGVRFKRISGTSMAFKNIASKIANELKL
Outline: as §1

S6K1 = S6K1 (Homo sapiens, UniProt P23443); details: 100 μM compound, 20 μM ATP; read-out: Kinase activity, % of activity in the absence of inhibitor
Sequence of S6K1 (P23443 whole entry): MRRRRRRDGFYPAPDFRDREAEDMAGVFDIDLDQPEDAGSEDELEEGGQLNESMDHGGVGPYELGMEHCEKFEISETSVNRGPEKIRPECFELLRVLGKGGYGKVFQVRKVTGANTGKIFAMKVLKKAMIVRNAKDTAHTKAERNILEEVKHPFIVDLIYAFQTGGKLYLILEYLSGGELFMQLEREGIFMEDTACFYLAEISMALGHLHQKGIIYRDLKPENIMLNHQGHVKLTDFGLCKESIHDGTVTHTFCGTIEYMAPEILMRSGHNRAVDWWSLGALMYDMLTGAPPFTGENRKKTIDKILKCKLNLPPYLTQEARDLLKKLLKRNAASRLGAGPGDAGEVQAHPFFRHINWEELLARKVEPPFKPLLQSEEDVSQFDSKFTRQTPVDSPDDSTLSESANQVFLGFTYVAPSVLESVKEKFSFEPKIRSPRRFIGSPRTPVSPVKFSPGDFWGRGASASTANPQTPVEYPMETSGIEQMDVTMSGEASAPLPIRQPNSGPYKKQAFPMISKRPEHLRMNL
Outline: as §1

MNK2 = MNK2 (Homo sapiens, UniProt Q9HBH9); details: 100 μM compound, 50 μM ATP; read-out: Kinase activity, % of activity in the absence of inhibitor
Sequence of MNK2 (Q9HBH9 whole entry): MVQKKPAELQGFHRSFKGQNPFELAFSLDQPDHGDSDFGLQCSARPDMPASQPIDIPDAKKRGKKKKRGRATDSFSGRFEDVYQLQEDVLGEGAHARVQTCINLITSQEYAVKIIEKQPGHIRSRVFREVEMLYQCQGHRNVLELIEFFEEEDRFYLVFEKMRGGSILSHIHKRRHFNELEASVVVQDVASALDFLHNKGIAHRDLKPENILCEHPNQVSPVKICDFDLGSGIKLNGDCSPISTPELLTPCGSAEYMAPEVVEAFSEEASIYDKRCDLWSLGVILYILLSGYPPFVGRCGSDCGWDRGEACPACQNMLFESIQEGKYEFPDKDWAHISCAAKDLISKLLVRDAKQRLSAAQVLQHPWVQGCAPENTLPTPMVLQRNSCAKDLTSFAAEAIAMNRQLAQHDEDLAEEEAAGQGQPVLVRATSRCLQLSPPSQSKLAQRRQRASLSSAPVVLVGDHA
Outline: as §1

MNK1 = MNK1 (Homo sapiens, UniProt Q9BUB5); details: 100 μM compound, 50 μM ATP; read-out: Kinase activity, % of activity in the absence of inhibitor
Sequence of MNK1 (Q9BUB5 whole entry): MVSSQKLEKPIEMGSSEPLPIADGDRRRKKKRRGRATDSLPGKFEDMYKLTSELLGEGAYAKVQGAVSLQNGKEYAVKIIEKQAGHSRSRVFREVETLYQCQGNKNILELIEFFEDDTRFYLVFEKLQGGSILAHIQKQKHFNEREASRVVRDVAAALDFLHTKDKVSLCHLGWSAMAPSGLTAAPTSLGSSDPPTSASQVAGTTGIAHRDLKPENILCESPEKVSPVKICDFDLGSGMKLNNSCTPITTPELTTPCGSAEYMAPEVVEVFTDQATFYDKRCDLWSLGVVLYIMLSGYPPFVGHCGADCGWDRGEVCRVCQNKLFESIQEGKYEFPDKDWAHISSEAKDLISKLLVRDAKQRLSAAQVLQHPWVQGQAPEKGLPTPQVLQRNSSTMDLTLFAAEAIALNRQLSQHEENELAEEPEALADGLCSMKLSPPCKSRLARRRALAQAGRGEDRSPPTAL
Outline: as §1

MKK6 = target: T1, MKK6 (Homo sapiens, UniProt P52564); details: 100 μM compound, 50 μM ATP; read-out: Kinase activity, % of activity in the absence of inhibitor
T1 sequence (P52564 1-334): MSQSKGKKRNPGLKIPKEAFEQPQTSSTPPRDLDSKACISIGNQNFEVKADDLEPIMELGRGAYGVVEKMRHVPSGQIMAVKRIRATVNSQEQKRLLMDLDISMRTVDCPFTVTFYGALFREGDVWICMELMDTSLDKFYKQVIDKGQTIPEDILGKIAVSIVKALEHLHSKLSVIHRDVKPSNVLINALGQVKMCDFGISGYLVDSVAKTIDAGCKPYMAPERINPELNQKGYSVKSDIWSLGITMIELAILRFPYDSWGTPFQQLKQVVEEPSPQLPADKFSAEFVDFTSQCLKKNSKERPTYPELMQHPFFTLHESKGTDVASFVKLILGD
Outline: as §1

EPH-B1 = target: T2, EPH-B1 (Homo sapiens, UniProt P54762); details: 100 μM compound, 20 μM ATP; read-out: Kinase activity, % of activity in the absence of inhibitor
T2 sequence (P54762 18-984): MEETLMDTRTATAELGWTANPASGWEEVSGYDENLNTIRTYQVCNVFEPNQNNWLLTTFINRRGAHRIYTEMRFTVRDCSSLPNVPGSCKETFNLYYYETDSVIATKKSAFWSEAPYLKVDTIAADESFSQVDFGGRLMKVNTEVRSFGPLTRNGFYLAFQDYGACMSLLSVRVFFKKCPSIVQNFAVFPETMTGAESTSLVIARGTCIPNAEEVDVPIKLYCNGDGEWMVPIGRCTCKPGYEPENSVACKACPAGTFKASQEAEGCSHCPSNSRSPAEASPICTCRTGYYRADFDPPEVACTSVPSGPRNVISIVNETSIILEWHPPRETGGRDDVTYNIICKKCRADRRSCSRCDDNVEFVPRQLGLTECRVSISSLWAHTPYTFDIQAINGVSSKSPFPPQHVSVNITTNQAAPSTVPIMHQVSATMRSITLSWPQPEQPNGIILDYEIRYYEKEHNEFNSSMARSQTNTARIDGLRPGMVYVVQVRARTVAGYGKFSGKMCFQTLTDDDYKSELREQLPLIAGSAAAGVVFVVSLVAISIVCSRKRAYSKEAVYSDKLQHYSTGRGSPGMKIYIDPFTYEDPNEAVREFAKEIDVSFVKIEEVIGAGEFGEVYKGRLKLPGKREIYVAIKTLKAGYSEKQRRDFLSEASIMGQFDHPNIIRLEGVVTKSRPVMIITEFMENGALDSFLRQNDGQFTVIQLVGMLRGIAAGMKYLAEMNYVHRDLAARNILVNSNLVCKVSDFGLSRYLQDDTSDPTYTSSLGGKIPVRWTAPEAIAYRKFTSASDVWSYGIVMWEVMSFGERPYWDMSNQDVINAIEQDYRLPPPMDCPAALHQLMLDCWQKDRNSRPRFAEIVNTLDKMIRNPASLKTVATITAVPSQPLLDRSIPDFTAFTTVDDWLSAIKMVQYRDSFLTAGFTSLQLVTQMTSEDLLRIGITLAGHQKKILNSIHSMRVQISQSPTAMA
Outline: as §1

TAK1 = target: T3, TAK1 (Homo sapiens, UniProt O43318); details: 100 μM compound, 5 μM ATP; read-out: Kinase activity, % of activity in the absence of inhibitor
T3 sequence (O43318 1-303 limits assumed): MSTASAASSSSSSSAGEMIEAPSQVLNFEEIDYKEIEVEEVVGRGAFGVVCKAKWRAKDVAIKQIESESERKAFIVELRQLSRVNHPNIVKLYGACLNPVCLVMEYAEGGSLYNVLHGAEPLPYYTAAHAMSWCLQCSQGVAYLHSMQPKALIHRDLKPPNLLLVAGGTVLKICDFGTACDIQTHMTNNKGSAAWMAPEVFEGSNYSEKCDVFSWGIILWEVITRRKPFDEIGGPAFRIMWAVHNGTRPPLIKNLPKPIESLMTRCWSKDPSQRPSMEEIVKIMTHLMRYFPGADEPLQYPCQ
Outline: as §1

SmMLCK = SmMLCK (Homo sapiens, UniProt Q15746); details: 100 μM compound, 20 μM ATP; read-out: Kinase activity, % of activity in the absence of inhibitor
Sequence of SmMLCK (Q15746 923-1914): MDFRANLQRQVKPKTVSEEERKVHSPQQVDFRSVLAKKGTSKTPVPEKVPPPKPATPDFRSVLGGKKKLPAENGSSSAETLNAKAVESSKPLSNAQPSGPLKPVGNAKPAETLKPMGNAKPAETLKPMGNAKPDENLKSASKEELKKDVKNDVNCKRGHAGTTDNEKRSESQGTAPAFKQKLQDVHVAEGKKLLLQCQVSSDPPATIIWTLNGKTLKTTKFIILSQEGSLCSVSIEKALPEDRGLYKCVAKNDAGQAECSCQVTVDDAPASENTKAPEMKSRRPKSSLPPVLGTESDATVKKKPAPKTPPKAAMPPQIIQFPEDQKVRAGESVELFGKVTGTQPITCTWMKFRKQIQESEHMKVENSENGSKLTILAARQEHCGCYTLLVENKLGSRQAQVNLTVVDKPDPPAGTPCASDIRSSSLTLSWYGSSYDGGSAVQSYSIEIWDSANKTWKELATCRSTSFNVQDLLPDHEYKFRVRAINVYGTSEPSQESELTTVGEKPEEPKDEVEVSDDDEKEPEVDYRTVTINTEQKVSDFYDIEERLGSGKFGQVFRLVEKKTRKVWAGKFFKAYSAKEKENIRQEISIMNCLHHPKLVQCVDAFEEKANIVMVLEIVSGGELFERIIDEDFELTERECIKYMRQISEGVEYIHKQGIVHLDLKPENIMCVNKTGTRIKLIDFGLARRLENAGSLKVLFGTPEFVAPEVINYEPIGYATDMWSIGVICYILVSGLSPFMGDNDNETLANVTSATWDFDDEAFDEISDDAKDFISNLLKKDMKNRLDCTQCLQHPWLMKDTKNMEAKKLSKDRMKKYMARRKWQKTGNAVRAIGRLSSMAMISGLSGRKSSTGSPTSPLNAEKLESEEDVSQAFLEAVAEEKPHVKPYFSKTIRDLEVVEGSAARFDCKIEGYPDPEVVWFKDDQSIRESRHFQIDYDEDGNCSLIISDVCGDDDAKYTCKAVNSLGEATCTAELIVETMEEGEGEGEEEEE
Outline: as §1

Aurora A = target: T4, Aurora A (Homo sapiens, UniProt O14965); details: for activity at 100 µM: 100 μM compound, 5 μM ATP, read-out: Kinase activity, % of activity in the absence of inhibitor
T4 sequence (O14965 1-403): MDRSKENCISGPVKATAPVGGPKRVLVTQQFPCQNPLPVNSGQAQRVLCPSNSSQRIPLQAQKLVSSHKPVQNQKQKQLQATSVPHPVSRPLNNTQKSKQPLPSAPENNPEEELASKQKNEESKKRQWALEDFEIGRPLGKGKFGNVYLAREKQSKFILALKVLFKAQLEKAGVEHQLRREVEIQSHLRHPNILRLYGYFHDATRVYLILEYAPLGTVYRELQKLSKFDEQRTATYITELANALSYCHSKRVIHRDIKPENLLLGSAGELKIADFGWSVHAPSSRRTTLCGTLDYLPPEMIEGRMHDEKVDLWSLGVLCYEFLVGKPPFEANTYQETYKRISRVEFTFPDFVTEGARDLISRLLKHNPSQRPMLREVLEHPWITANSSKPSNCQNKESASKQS
Outline: as §1

Structure (SMILES): Nc1ncnc2c1ncn2C1OC(COP(=O)(O)OP(=O)(O)O)C(O)C1O (stereo not shown) [ADP]
- activity at 100 µM (CDK2-Cyclin A): 26.3%
- activity at 100 µM (MARK2): 25%
- activity at 100 µM (S6K1): 35.5%
- activity at 100 µM (MNK2): 41.2%
- activity at 100 µM (MNK1): 60.7%
- activity at 100 µM (MKK6): 39.1%
- activity at 100 µM (EPH-B1): 11.6%
- activity at 100 µM (TAK1): 15.8%
- activity at 100 µM (SmMLCK): 73%
- activity at 100 µM (Aurora A): 38%

Structure (SMILES): CC(C)(COP(=O)(O)OP(=O)(O)OC[C@H]1O[C@@H](n2cnc3c(N)ncnc32)[C@H](O)[C@@H]1OP(=O)(O)O)[C@@H](O)C(=O)NCCC(=O)NCCS [CoA, Coenzyme A]
- activity at 100 µM (CDK2-Cyclin A): 93.2%
- activity at 100 µM (MARK2): 93.1%
- activity at 100 µM (S6K1): 89.1%
- activity at 100 µM (MNK2): 138%
- activity at 100 µM (MNK1): 150%
- activity at 100 µM (MKK6): 88.6%
- activity at 100 µM (EPH-B1): 117%
- activity at 100 µM (TAK1): 115%
- activity at 100 µM (SmMLCK): 92.1%
- activity at 100 µM (Aurora A): 13.4%
- inhibition at 100 µM (Aurora A; at 100 μM, n = 3): 87%

Structure (SMILES): CC(C)(COP(=O)(O)OP(=O)(O)OCC1OC(n2cnc3c(N)ncnc32)C(O)C1O)C(O)C(=O)NCCC(=O)NCCS (stereo not shown) [dpCoA, dephospho-CoA]
- activity at 100 µM (CDK2-Cyclin A): 81.1%
- activity at 100 µM (MARK2): 81.5%
- activity at 100 µM (S6K1): 30.5%
- activity at 100 µM (MNK2): 87.1%
- activity at 100 µM (MNK1): 84.2%
- activity at 100 µM (MKK6): 88.2%
- activity at 100 µM (EPH-B1): 80%
- activity at 100 µM (TAK1): 79.6%
- activity at 100 µM (SmMLCK): 91.3%
- activity at 100 µM (Aurora A): 29.9%
